Laboratory results from patent US20140336220A1, “COMPOSITION FOR PREVENTING OR TREATING OBESITY COMPRISING REBAMIPIDE” (The Catholic University of Korea Industry-Academic …, priority 2011, published 2014).
Entries after “also recorded” stand apart in the source; their conditions may differ.

Tests used:
[1] = system: animal models induced with obesity; assay: Weight reduction effect in mice induced with obesity using a high fat food; format: in vivo, C57BL/6(H-2kb) mouse; details: 300 mg/kg oral
Procedure: The inventors of the present disclosure prepared animal models induced with obesity in order to check whether rebamipide has an effect of treating obesity. As a test animal, a C57BL/6(H-2kb) mouse was used. In order to prepare animal models induced with obesity, a high fat food was fed to the animal models induced with obesity. After rebamipide was orally administered with a dose of 300 mg/kg to the animal models induced with obesity, weights of a rebamipide-treated group and a control group induced with obesity were measured.

[2] = system: animal models induced with obesity; assay: Adipocyte in liver frozen sections, haematoxylin and eosin and Oil red O staining; format: in vivo, mouse; details: oral administration, 51 days, H&E and Oil red O staining, vs control induced with obesity, FIG. 2
Procedure: In order to check fat inhibition effect of rebamipide, after supply of a high fat diet for 51 days was ended, a food was stopped at 12 hours before an experiment period was ended. Then, a frozen section (7 μm) obtained from a liver was haematoxylin and eosin staining and Oil red O staining. As a result of staining including the haematoxylin and eosin staining and Oil red O staining, it could be seen that in the liver obtained after oral administration with rebamipide, adipocyte were reduced as compared with a control induced with obesity (refer to FIG. 2).

[3] = system: animal models induced with obesity; assay: Serum glucose, triglyceride and cholesterol by autoanalyzer; format: in vivo, mouse; details: oral administration, obese mice, FIG. 3
Procedure: Further, an experimental animal group was etherized and blood was collected from the heart. The collected blood was put into a centrifuge tube and centrifuged at 3000 rpm for 20 minutes, so that the serum was separated and kept in a freezer until it was analyzed at −70° C. Contents of glucose, triglyceride, total cholesterol, HDL-cholesterol, and LDL-cholesterol in the serum were analyzed using an autoanalyzer (Kuadro, Italy).

[4] = system: animal models induced with obesity; assay: Obesity improvement depending on dose: weight and liver; format: in vivo, mouse
Procedure: In order to check an obesity improvement effect depending on a treatment concentration of rebamipide, the inventors of the present disclosure orally administered rebamipide with a dose of 30 mg/kg and 100 mg/kg to an animal models induced with obesity prepared in Example 1 and then measured weights of the rebamipide treatment group and a mouse induced with obesity as a control group. For in vitro test, on the 63rd day after treatment with rebamipide, an experimental animal was killed and the liver of the mouse was extracted, and then, a size of the mouse and a weight of the liver were measured with the naked eye.

[5] = system: animal models induced with obesity; assay: Serum cholesterol, LDL-cholesterol and triglyceride, dose comparison; format: in vivo, mouse; details: FIG. 7A
Procedure: An experimental animal group was etherized and blood was collected from the heart. The collected blood was put into a centrifuge tube and centrifuged at 8000 rpm for 8 minutes at 20° C., so that the serum was separated.

spleen cells = assay: Spleen cell proliferation after aCD3 stimulation, thymidine; format: cell-based, mouse; details: FIG. 7B
Procedure: The spleen was extracted from the mouse of each group and spleen cells 2×10^5 of each mouse were divided into a 96-well plate and stimulated with 0.5 μg/ml of aCD3 and then cultured for 3 days. 16 hours before acquirement, the cells were stimulated with thymidine of […], and then, 16 hours after stimulation, proliferation of the mouse cells was measured.

pre-adipocyte = assay: Adipocyte differentiation of pre-adipocyte, Oil red O analysis; format: cell-based; details: vs untreated cells, dependent on dose of rebamipide, FIG. 8
Procedure: In order to check whether or not rebamipide has a […] inhibition effect, the inventors of the present disclosure divided pre-adipocyte in an amount of 1.2×10^4/2 ml into a 24-well plate, and when the cells were completely packed, the cells were cultured again for 48 hours. After 48 hours, differentiation of adipocyte was induced with replacement of a culture medium added with dexamethasone, insulin, and isobutylmethylxanthine. In this case, rebamipide was also used to stimulate while being dissolved in DMSO. 3 days after differentiation, differentiation of adipocyte was maintained with replacement with a culture medium added with dexamethasone and insulin once per two days. After 4 days, Oil red O analysis was carried out.

adipocyte = assay: Real time PCR of adipogenic and brown fat genes in differentiated adipocyte; format: cell-based; details: FIG. 9
Procedure: The inventors of the present disclosure differentiated adipocyte by the method of Example <7-1>. 3 days after differentiation, differentiation of adipocyte was maintained with replacement with a culture medium added with dexamethasone and insulin once per two days, and after 4 days, the cells were treated with trizol and RNA was separated therefrom and cDNA was synthesized. Then, by real time PCR, mRNA expression of c/EBP, adiponectin, Leptin aP2, GLTU, and Cytochrome C1 as proadipogenic transcription factors was observed.

[6] = system: animal group with obesity induced arthritis; assay: Type-II-collagen-specific IgG and IgG2a in serum by ELISA; format: in vivo, mouse; details: serum 1:100, vs obesity induced arthritis group, FIG. 13
Procedure: Blood was collected from the heart of a mouse in each group and centrifuged at 8000 rpm for 8 minutes at 20° C., so that the mouse serum of each group was obtained from a supernatant of the blood. The serum was diluted at a ratio of 1:100, and type-II-collagen-specific IgG and IgG2a were measured by an ELISA method.

STAT3 = STAT3 inhibition in spleen of obesity induced arthritis model, confocal microscope; format: in vivo, mouse; details: FIG. 16
Text: In order to investigate whether or not rebamipide can inhibit STAT3, the inventors of the present disclosure extracted the spleen from a mouse in each group, and embedded a frozen section (optimal cutting temperature compound: O.C.T. compound) using the extracted spleen and rapidly cooled the tissue in liquid nitrogen and attached the tissue on a slide to a thickness of 7 μm using a cryo microtome. Then, the section was fixed with acetone and coated with 10% normal goat serum and blocked from a non-specific reaction for 30 minutes. Thereafter, the section was reacted at 4° C. overnight with primary antibodies, that is, FITC-labeled anti-mFoxp3 Ab, FITC labeled anti-mCD4 Ab, PE-labeled anti-p-STAT3 s727 Ab, and PE-labeled anti-p-STAT3 y705 Ab, diluted with PBS (pH 7.5) at a ratio of 1:50 for analyzing STAT3. On the next day, the section was washed with a PBS solution, and a stained tissue was analyzed with a confocal microscope.

[7] = 100 mg/kg oral, compared between doses
[8] = well treated with 20 μm of rebamipide

O=C(NC(Cc1cc(=O)[nH]c2ccccc12)C(=O)O)c1ccc(Cl)cc1 (stereo not drawn) [rebamipide, 2-(4-chlorobenzoylamino)-3-[2(1H)-quinolinon-4-yl]propionic acid]
liver appearance with the naked eye ([1]; killed on the 51st day, FIG. 1B): bright red like a liver of a normal mouse
weight ([1]; obese mice on high fat food, vs control group, FIG. 1A): statistically significantly decreased
adipocyte in liver [2]: remarkably reduced
HDL-cholesterol in serum [3]: slightly increased; also recorded: not statistically significant but increased
LDL-cholesterol in serum [3]: statistically significantly reduced; also recorded: statistically significantly decreased
glucose in serum [3]: statistically significantly reduced; also recorded: statistically significantly decreased
total cholesterol in serum [3]: statistically significantly reduced; also recorded: statistically significantly decreased
triglyceride in serum [3]: statistically significantly reduced; also recorded: statistically significantly decreased
weight ([4]; 30 mg/kg and 100 mg/kg oral, vs control group, FIG. 6A): statistically reduced
weight reduction effect ([4]; 30 mg/kg oral, FIG. 6A): a weight reduction effect was illustrated
liver appearance ([4]; 100 mg/kg oral, 63rd day, FIG. 6B): bright red similarly to a liver of a normal control mouse
weight reduction effect ([4]; 100 mg/kg oral, FIG. 6A): highest
LDL-cholesterol in serum ([5]; 30 mg/kg and 100 mg/kg oral): statistically significantly reduced
cholesterol in serum ([5]; 30 mg/kg and 100 mg/kg oral): statistically significantly reduced
triglyceride in serum ([5]; 30 mg/kg and 100 mg/kg oral): statistically significantly reduced
reduction effect on serum cholesterol, LDL-cholesterol and triglyceride [5, 7]: generally highest
effect on proliferation of spleen cells (spleen cells; [7]): higher
proliferation of spleen cells (spleen cells; spleen cells of orally treated mice, 0.5 μg/ml aCD3, 3 days): inhibition of cell proliferation was decreased
differentiation of adipocyte (Oil red O) (pre-adipocyte): differentiation of adipocyte did not occur
mRNA expression of Cytochrome C1 (adipocyte; differentiated adipocyte): reduced depending on a concentration of rebamipide
mRNA expression of GLTU (adipocyte; differentiated adipocyte): reduced depending on a concentration of rebamipide
mRNA expression of Leptin (adipocyte; differentiated adipocyte): reduced depending on a concentration of rebamipide
mRNA expression of aP2 (adipocyte; differentiated adipocyte): reduced depending on a concentration of rebamipide
mRNA expression of adiponectin (adipocyte; differentiated adipocyte): reduced depending on a concentration of rebamipide
mRNA expression of c/EBP (adipocyte; differentiated adipocyte): reduced depending on a concentration of rebamipide
level of brown fat gene Cidea (adipocyte; [8]): increased
level of brown fat gene Cox7a1 (adipocyte; [8]): increased
level of brown fat gene Elov13 (adipocyte; [8]): increased
level of brown fat gene Fgf21 (adipocyte; [8]): increased
type-II-collagen-specific IgG2a in serum [6]: significantly decreased
type-II-collagen-specific IgG in serum [6]: significantly decreased
p-STAT3 s705 in spleen (STAT3): decreased
p-STAT3 s727 in spleen (STAT3): decreased
